Data on two compounds can be found in patent US20100189807A1, “Use of an ozone / oxygen mixture as a primary anticancer therapy via intraperitoneal insufflation” (priority 2009, published 2010).

For data set [1] the following is noted: inhaled ozone; cited from earlier work.
The nature of data set [2]: Hematological and clinical chemistry blood parameters. The class given is in vivo, New Zealand White (NZW) rabbit. How it is done: Arterial blood samples from the central auricular artery of the left tumor free ear were taken on day 14 post inoculation (directly before the first gas insufflation/sham treatment) and on day 19 post inoculation (24 h after the last gas insufflation/sham treatment). Additional blood samples were taken on day 90 from the O3/O2-rem animals (FIG. 1a). For hematological investigations we used an autoanalyzer (Vet abc™ Animal Blood Counter, ABX Diagnostics, Goettingen, Germany), that has been carefully adjusted and validated for the analysis of rabbit blood. For differential blood counts the RBC count was determined together with the hematocrit (HCT) and hemoglobin (HGB). […] Data were expressed as mean values±SEM. For clinical chemistry investigations creatinine, GOT, and GPT values were measured with the Reflovet® Plus system (Roche Diagnostics GmbH, Mannheim, Germany) to monitor for kidney and liver functions.
For comparison of survival rates of the three experimental groups the logrank test was performed considering p values<0.05 as significant. The survival probability of rabbits calculated from the time of tumor cell inoculation until day 90 was depicted according to the Kaplan-Meier method. […] Statistical differences in mean body weight between the experimental groups were evaluated at daily intervals with the unpaired Student's t test with two tail p values. […]

In another data set the test system is VX2 auricular carcinoma. Nature of the data set: Therapy of auricular VX2 carcinoma in rabbits by intraperitoneal gas insufflation (survival, tumor clearance, lung metastases). The conditions noted are these: n=14 (O3/O2), n=13 (O2). The data set is classed as in vivo, New Zealand White (NZW) rabbit.

On to `O=[O+][O-]` [ozone], for which the “grade of adverse effect (weight loss)” value in data set [1] is “grade II”.
Take `O=O` [O2]: the RBC in data set [2] (d 14, directly before the first insufflation) is 5.68 10^6/mm^3; in data set [2] (d 19, 24 h after the last insufflation) it was 5.31 10^6/mm^3. Besides, the “number of rabbits with remission of the tumor” value with VX2 auricular carcinoma was “two”.
